The assay relates to CCl4-induced hepatotoxicity model. The assay is described as follows: Carbon tetrachloride (CCl4)-induced hepatotoxicity model, serum ALT and survival. In kind it is in vivo, ICR/CD-1 mice. The note with it: CCL4 25 μl/kg; dose 50 mg/kg.

For the molecule `C=CCc1cc(OC)c2c(c1)OCO2` [Myristicin], the “% Change (inhibition in serum ALT)” value is 99.7%.

For the origin of these results see US20250144164A1, “COMPOSITIONS, METHODS, AND MEDICAL COMPOSITIONS FOR TREATMENT OF AND MAINTAINING THE HEALTH OF THE LIVER” (priority 2023, published 2025).
